Measured values taken from publication PMC9030254, “Target Hopping from Protein Kinases to PXR: Identification of Small-Molecule Protein Kinase Inhibitors as Selective Modulators of Pregnane X Receptor from TüKIC Library” (Cells, 2022).

Key:
Experiment in all cases: Kinase profiling
Format in all cases: biochemical
[1] = target: T1, CDK8/CycC (Homo sapiens, UniProt P49336)
T1 construct: purchased ProQinase (Freiburg, Germany)
Experimental: (§1) The analysis was performed by ProQinase (Freiburg, Germany).

[2] = target: T2, MUSK (Homo sapiens, UniProt O15146)
T2 construct: purchased ProQinase (Freiburg, Germany)
T2 sequence (O15146 24-869): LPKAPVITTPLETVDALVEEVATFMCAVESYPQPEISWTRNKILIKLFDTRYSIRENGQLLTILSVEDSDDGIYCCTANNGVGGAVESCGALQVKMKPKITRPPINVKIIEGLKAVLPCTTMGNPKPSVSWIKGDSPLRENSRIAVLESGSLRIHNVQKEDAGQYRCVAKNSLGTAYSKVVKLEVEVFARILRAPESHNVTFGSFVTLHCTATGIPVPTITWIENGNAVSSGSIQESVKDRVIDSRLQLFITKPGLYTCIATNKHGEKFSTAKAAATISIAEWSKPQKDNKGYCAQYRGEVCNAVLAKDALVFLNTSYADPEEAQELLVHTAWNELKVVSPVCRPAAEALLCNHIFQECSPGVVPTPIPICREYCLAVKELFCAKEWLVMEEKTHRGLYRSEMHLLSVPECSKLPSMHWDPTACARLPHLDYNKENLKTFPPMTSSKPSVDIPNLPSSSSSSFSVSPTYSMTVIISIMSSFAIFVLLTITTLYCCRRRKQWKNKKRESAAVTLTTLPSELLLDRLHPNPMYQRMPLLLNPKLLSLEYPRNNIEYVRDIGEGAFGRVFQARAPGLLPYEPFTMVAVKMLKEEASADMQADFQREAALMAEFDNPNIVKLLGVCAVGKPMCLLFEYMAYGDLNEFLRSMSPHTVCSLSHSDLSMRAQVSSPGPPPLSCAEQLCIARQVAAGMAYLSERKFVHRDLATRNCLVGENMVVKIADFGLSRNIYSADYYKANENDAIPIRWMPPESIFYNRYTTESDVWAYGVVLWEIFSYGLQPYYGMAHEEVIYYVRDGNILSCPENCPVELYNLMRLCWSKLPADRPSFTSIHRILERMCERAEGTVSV
Experimental: as §1

[3] = target: T3, STK17A (Homo sapiens, UniProt Q9UEE5)
T3 construct: purchased ProQinase (Freiburg, Germany)
T3 sequence (Q9UEE5 1-414): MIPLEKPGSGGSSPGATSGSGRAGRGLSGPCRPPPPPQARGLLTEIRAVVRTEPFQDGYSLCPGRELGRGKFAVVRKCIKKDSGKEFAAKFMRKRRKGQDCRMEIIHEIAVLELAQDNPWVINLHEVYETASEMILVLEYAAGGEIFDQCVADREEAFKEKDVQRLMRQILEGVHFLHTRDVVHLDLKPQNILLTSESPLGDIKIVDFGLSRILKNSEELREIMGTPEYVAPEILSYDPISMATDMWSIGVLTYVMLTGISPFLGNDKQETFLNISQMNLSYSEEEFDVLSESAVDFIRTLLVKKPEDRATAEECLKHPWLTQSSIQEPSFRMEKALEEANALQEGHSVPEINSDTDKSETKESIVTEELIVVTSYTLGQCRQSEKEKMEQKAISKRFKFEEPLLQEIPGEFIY
Experimental: as §1

[4] = target: T4, SRC (Homo sapiens, UniProt P12931)
T4 construct: purchased ProQinase (Freiburg, Germany)
Experimental: as §1

[5] = target: T5, RPS6KA6 (Homo sapiens, UniProt Q9UK32)
T5 construct: purchased ProQinase (Freiburg, Germany)
Experimental: as §1

[6] = target: T6, BRSK2 (Homo sapiens, UniProt Q8IWQ3)
T6 construct: purchased ProQinase (Freiburg, Germany)
T6 sequence (Q8IWQ3 1-736): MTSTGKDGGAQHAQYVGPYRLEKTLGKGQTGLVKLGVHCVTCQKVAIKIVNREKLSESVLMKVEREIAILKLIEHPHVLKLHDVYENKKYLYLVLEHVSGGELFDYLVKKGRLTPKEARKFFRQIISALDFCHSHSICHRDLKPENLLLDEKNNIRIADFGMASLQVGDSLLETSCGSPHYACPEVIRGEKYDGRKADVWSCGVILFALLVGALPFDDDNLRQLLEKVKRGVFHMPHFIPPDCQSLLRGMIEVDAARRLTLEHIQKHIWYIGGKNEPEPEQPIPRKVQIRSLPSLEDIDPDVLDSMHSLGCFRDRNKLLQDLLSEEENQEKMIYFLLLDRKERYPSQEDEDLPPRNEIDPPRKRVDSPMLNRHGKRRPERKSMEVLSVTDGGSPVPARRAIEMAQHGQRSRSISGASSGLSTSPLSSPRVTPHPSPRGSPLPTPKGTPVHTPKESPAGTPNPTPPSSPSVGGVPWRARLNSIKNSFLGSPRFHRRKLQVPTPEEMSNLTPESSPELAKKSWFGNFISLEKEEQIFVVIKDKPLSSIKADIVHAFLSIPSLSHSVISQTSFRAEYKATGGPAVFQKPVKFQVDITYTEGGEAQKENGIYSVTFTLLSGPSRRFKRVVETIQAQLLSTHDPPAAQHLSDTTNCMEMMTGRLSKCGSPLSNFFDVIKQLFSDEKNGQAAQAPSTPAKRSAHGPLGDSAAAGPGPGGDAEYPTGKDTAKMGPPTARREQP
Experimental: as §1

[7] = target: T7, ACVR2B (Homo sapiens, UniProt Q13705)
T7 construct: purchased ProQinase (Freiburg, Germany)
Experimental: as §1

[8] = target: T8, CAMK2B (Homo sapiens, UniProt Q13554)
T8 construct: purchased ProQinase (Freiburg, Germany)
Experimental: as §1

T1 sequence (P49336 whole entry): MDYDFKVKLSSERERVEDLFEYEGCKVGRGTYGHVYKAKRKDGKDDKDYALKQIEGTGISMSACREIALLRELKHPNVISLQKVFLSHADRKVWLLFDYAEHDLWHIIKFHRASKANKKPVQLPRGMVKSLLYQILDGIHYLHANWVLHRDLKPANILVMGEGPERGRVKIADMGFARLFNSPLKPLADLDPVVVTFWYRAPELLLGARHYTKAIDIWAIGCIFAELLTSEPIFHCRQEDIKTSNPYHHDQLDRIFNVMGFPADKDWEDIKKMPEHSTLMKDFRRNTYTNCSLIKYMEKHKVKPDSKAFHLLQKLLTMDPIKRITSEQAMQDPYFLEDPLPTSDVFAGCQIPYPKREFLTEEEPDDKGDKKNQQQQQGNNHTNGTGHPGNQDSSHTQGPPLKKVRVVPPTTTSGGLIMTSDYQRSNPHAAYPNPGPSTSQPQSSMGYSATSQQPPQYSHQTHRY
T1 sequence (P24863 whole entry partner): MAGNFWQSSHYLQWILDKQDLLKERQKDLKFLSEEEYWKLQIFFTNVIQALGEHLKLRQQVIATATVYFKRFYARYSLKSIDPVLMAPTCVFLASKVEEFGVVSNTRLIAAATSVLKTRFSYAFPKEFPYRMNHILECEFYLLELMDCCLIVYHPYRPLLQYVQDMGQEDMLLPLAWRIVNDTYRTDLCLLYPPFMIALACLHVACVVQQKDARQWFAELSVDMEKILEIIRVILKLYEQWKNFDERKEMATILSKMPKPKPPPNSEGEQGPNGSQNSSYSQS
T8 sequence (Q13554 whole entry): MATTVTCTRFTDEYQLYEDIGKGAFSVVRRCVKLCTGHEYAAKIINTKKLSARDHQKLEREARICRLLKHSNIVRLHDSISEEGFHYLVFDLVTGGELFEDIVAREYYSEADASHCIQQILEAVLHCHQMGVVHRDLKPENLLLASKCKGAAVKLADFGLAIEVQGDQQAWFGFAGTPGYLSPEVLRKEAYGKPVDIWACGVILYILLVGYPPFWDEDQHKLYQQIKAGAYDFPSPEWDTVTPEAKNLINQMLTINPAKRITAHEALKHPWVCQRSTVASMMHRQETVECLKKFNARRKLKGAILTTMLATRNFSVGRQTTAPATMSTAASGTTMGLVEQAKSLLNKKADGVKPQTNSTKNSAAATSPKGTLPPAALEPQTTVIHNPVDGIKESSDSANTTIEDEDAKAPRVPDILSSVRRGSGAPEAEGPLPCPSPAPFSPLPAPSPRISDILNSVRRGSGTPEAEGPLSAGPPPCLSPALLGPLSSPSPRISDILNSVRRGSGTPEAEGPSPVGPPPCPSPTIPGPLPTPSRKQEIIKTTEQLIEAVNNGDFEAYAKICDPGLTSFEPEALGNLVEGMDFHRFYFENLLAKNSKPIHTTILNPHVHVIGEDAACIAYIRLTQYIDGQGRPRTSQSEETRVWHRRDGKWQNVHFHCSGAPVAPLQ
T4 sequence (P12931 whole entry): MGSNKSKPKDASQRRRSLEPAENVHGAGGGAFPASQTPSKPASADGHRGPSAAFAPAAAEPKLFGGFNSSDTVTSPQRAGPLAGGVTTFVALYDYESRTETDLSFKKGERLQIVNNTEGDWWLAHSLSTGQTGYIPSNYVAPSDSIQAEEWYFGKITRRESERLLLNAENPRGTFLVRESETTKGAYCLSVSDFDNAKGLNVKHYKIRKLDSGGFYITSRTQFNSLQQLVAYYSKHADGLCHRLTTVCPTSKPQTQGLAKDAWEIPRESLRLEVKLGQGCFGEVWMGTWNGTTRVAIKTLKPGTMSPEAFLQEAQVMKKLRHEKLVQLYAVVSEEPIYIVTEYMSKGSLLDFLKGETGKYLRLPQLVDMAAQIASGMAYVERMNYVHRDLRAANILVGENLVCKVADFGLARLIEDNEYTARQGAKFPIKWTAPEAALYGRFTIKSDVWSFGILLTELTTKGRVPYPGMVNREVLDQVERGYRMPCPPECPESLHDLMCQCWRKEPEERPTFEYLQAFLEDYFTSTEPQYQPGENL
T7 sequence (Q13705 19-512): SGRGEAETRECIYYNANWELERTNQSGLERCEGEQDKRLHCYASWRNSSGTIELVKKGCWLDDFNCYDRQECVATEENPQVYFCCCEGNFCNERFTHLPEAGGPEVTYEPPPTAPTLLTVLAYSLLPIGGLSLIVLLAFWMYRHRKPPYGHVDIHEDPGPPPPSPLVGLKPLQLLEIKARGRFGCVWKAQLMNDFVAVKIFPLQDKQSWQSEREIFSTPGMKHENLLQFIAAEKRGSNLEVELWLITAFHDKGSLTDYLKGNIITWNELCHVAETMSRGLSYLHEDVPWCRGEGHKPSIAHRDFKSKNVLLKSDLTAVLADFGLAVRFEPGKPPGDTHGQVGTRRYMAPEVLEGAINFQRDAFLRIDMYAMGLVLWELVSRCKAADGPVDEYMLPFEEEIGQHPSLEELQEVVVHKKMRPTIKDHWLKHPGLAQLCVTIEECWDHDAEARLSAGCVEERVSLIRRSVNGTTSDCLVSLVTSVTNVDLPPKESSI
T5 sequence (Q9UK32 whole entry): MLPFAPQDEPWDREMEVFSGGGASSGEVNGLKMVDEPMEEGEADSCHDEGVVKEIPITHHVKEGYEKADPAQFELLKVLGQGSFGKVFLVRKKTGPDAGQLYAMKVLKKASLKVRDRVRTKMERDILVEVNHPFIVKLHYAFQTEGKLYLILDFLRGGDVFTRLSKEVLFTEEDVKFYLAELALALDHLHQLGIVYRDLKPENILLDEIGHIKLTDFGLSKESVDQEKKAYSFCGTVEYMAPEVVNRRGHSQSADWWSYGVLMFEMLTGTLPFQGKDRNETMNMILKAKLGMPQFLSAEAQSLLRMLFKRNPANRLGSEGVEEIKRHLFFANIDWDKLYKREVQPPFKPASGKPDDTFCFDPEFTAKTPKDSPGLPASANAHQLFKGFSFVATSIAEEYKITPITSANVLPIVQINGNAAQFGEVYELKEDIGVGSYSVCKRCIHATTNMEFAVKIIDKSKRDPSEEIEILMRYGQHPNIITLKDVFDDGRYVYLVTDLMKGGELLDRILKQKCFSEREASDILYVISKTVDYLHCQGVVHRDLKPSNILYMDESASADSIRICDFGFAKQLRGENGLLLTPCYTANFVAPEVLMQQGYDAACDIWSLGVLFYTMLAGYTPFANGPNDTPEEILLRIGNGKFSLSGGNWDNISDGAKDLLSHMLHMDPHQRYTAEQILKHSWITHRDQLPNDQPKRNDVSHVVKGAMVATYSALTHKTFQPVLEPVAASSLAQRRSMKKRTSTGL

Row | SMILES | Residual activity ([1]; 1.0E-05 M) | Residual activity ([1]; 1.0E-06 M) | Residual activity ([2]; 1.0E-05 M) | Residual activity ([2]; 1.0E-06 M) | Residual activity ([3]; 1.0E-05 M) | Residual activity ([3]; 1.0E-06 M) | Residual activity ([4]; 1.0E-05 M) | Residual activity ([4]; 1.0E-06 M) | Residual activity ([5]; 1.0E-05 M) | Residual activity ([5]; 1.0E-06 M) | Residual activity ([6]; 1.0E-05 M) | Residual activity ([6]; 1.0E-06 M) | Residual activity ([7]; 1.0E-05 M) | Residual activity ([7]; 1.0E-06 M) | Residual activity ([8]; 1.0E-05 M) | Residual activity ([8]; 1.0E-06 M)
1 | O=C(Cc1ccccc1)Nc1ccc(F)c(Nc2ccc3c(c2)CCCCC3=O)c1 [Compound 100] | 60 % of control | 82 % of control | 93 % of control | 98 % of control | 76 % of control | 111 % of control | 105 % of control | 117 % of control | 83 % of control | 90 % of control | 99 % of control | 113 % of control | 169 % of control | 95 % of control | 115 % of control | 144 % of control
2 | O=C(Nc1ccc(F)c(Nc2ccc3c(c2)CCCCC3=O)c1)c1cccc(F)c1 [Compound 109] | 61 % of control | 79 % of control | 83 % of control | 97 % of control | 88 % of control | 105 % of control | 100 % of control | 107 % of control | 81 % of control | 88 % of control | 100 % of control | 109 % of control | 167 % of control | 104 % of control | 104 % of control | 132 % of control
